Assays:
[1] = biological target: recombinant thioredoxin reductase 1 (TrxR1) (Homo sapiens (Human), UniProt Q16881); experiment: Inhibition of recombinant TrxR1 (DTNB assay); type: biochemical; conditions: 30 nM TrxR1, 250 μM NADPH, 15 minutes incubation, read-out: TrxR Assay IC50
Method: (§1) Small molecule inhibition of recombinant thioredoxin reductase 1 (TrxR1) and gluthathione reductase (GR) was examined in 96-well plate format. 30 nM TrxR1 was incubated in the presence of 250 μM NADPH, 0.1 mg/ml BSA, and various concentrations of compound (1% DMSO final) in 50 mM Tris (pH 7.5) and 2 mM EDTA buffer for 15 minutes. Following the incubation period, 2 mM DTNB was added to each well and the change in O.D. at 412 nm was followed. Percent activity was determined using DMSO vehicle and no TrxR1 (blank) controls. 2 nM GR was incubated in the presence of 250 μM NADPH, 0.1 mg/ml BSA, and various concentrations of compounds (1% DMSO final) in 50 mM Tris (pH 7.5) and 2 mM EDTA buffer for 15 minutes. Following the incubation period, 1 mM GSSG was added to each well and the change in O.D. at 340 nm was followed. Percent activity was determined using DMSO vehicle and no GR (blank) controls.

[2] = biological target: gluthathione reductase (GR) (Homo sapiens (Human), UniProt P00390); experiment: Inhibition of recombinant GR (GSSG assay); type: biochemical; conditions: 2 nM GR, 250 μM NADPH, 15 minutes incubation
Method: as §1

FaDu cells = experiment: Head and neck cancer cell viability assay (Cell-Quanti Blue); type: cell-based; conditions: Homo sapiens, 72 hrs, 10% FBS media containing 25 nM selenite
Method: (§2) FaDu cells were plated 2000 cells/well in 96-well black optical plates in the presence of 10% FBS media containing 25 nM selenite. The following day cells were treated with various concentrations of the compound of Example 1 (0.1% DMSO final) and incubated for 72 hrs. After the incubation Cell-Quanti Blue reagent was added to each well and incubated for additional 3 hrs. Fluorescence was read ex:530 nm/em:590 nm, and percent of viability was determined using DMSO vehicle and no cell (blank) controls.

MDA-MB-231 cells = experiment: Breast cancer cell viability assay (Alamar Blue); type: cell-based; conditions: Homo sapiens, 72 hrs, 10% FBS media containing 25 nM selenite
Method: as §2, with “MDA-MB-231” for “FaDu”, “compounds” for “the compound of Example 1”, “Alamar” for “Cell-Quanti”

U-87 MG = experiment: Cancer cell viability assay (MTT), U-87 MG; type: cell-based; conditions: Homo sapiens, 72 hrs, 10% FBS media
Method: (§3) Breast cancer and glioblastoma cell lines were plated 4000 cells/well in 96-well plates in the presence of 10% FBS media. The following day cells were treated with various concentrations of the example compounds (0.1% DMSO final) and incubated for 72 hrs. After the incubation An MTT assay was performed to access cell viability. Percent of viability was determined using DMSO vehicle and no cell (blank) controls.

MDA-MB-231 = experiment: Cancer cell viability assay (MTT), MDA-MB-231; type: cell-based; conditions: Homo sapiens, 72 hrs, 10% FBS media
Method: as §3

MDA-MB-468 = experiment: Cancer cell viability assay (MTT), MDA-MB-468; type: cell-based; conditions: Homo sapiens, 72 hrs, 10% FBS media
Method: as §3

Sequence of gluthathione reductase (GR) (P00390 44-522): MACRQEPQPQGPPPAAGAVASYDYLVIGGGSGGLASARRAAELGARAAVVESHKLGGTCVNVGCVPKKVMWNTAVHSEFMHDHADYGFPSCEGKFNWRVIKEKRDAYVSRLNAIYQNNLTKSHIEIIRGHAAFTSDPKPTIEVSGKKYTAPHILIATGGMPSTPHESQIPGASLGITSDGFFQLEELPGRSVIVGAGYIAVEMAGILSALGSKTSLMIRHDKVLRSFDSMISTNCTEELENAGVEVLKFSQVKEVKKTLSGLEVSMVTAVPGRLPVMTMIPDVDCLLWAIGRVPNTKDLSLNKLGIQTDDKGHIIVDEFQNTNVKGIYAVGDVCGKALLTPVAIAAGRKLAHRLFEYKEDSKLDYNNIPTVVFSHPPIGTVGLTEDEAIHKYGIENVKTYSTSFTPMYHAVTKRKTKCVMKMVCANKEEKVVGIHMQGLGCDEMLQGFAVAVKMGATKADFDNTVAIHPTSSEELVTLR
Sequence of recombinant thioredoxin reductase 1 (TrxR1) (Q16881 151-649): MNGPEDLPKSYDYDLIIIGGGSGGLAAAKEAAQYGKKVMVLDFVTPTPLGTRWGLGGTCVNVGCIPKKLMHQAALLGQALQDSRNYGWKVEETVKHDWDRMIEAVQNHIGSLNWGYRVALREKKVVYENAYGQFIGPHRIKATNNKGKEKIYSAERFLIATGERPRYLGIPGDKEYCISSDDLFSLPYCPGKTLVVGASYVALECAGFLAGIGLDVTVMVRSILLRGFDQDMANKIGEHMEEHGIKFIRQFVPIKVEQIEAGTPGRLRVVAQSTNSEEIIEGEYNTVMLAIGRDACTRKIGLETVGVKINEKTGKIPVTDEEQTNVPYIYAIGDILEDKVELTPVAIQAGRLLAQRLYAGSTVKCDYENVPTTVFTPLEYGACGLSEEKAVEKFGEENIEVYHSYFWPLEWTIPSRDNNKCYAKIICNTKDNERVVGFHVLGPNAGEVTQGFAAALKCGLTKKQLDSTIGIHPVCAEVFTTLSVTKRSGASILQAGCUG

`COc1ccc([N+](=O)[O-])c(S(=O)(=O)Cc2ccccc2)n1` [Example 1, 2-Benzylsulfonyl-6-methoxy-3-nitropyridine] gave an IC50 [1] of 18.2 nM, an IC50 [2] greater than 100000 nM and an IC50 (FaDu cells) of 280 nM. For the same molecule, the IC50 (MDA-MB-231 cells) was 3810 nM, the IC50 (U-87 MG) was 6110 nM and the IC50 (MDA-MB-231) was 1800 nM. For the same molecule, the IC50 (MDA-MB-468) was 2890 nM.

— patent US11161815B2, “Hydrocarbylsulfonyl-substituted pyridines and their use in the treatment of cancer” (Oblique Therapeutics AB, priority 2017, dated 2021)
